# Reference: ChEMBL document CHEMBL1201862, “PubChem BioAssay data set” (2004)
# Calls of active or inactive are those of the source.
# Key:
# [1] = blockers of HIV-1 envelope-mediated cell-cell fusion – cherry-pick, dose response (AID 652057); format: functional, cell-based
# Cytochrome P450 3A4 = Cytochrome P450 3A4 (Homo sapiens, UniProt P08684);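 note: CYP3A4 tested as one member of a cytochrome P450 panel screen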
# [2] = viability loss in CEM21 cells – cell-based, CellTiter-Glo luminescence, cherry-picked, cytotoxicity control for viral fusion inhibitor project, dose response (AID 652042); format: functional;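 note: potency for signal decrease meaning cytotoxicity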
# [3] = off-target signal loss in HeLa-CEM21 co-culture – HeLa F-luc CTL cells, cherry-picked, counter-screen for HIV-1 Env fusion inhibitor project, dose response (AID 652040); format: functional, cell-based;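 note: potency for signal decrease marking cytotoxic or nonspecific inhibition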
# [4] = HIV-1 AD8 envelope cell-cell fusion blockers – cherry-pick, dose response (AID 652062); format: functional, cell-based;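 note: luciferase signal from cell-cell fusion driven by HIV-1 clade B AD8 Env; potency is for inhibitors of fusion seen as a drop in luminescence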
# [5] = blockers of HIV-1 ZM109 envelope-driven cell-cell fusion – HeLa effector, CEM target cells, luciferase, cherry-pick, dose response (AID 652058); format: functional, cell-based;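 note: luciferase signal from HIV-1 Env mediated cell-cell fusion of effector and target cells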
# Albumin = Albumin (Bos taurus, UniProt P02769); experiment: Counterscreen for inhibitors of T-cell receptor (TCR)-CD3 interaction: Fluorescence-based biochemical high throughput dose response assay to identify inhibitors of T-cell receptor (TCR)-CD3 interaction using a TAMRA-labeled BSA probe.; format: functional
# [6] = target: T1, Histone-lysine N-methyltransferase NSD2 (Homo sapiens, UniProt O96028); format: biochemical
# T1 sequence (O96028 whole entry): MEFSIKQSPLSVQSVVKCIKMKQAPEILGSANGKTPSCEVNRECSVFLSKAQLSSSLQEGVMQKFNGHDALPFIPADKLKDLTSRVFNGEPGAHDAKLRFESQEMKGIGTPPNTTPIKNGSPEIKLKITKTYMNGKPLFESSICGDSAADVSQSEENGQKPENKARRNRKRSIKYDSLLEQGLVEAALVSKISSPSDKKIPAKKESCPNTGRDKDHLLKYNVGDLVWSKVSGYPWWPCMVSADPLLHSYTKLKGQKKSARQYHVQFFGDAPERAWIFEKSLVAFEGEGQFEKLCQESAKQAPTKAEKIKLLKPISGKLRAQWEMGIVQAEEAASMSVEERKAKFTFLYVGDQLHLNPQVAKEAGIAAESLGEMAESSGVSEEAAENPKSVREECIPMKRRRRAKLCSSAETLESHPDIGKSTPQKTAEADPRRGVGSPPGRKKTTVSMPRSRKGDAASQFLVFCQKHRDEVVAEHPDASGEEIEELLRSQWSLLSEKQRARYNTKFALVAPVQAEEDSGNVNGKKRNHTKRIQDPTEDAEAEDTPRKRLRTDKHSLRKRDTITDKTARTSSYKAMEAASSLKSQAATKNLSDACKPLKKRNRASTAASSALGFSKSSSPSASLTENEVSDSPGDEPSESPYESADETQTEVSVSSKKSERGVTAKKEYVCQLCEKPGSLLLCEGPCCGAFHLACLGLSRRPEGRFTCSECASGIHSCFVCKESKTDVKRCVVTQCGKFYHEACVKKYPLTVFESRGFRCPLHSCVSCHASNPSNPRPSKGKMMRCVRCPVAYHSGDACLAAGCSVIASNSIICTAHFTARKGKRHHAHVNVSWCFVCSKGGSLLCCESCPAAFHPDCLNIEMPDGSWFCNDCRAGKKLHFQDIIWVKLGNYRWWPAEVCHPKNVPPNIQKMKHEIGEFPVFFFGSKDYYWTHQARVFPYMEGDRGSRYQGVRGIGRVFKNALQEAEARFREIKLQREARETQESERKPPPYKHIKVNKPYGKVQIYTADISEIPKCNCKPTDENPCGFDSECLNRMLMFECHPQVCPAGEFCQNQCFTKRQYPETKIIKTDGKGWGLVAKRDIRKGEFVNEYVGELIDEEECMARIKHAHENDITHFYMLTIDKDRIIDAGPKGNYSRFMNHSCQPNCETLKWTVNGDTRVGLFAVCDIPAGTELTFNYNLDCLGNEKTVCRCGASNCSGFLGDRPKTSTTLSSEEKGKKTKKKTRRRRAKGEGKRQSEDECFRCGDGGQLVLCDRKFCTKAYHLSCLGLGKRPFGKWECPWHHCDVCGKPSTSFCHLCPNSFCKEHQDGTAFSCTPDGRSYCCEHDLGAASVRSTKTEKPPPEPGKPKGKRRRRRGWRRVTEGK
# Large T antigen = Large T antigen (Simian virus 40, UniProt P03070); format: functional, Betapolyomavirus macacae;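 note: Confirmatory-stage PubChem screen for compounds that inhibit SV40 T antigen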
# Beta-lactamase [7] = target: T2, Beta-lactamase (Pseudomonas aeruginosa, UniProt Q79MP6); experiment: inhibition of IMP-1 beta-lactamase activity – biochemical, epi-absorbance, selectivity assay for VIM-2 inhibitor project, dose response (AID 1920)
# Beta-lactamase [8] = target: Beta-lactamase (Salmonella choleraesuis (strain SC-B67), UniProt Q5J463); experiment: Epi-absorbance-based counterscreen for selective VIM-2 inhibitors: dose response biochemical high throughput screening assay to identify inhibitors of TEM-1 serine-beta-lactamase.
# Beta-lactamase [9] = target: T2, Beta-lactamase; experiment: […] counterscreen for selective VIM-2 inhibitors: dose response biochemical high throughput screening assay to identify inhibitors of IMP-1 metallo-beta-lactamase.
# [10] = target: T3, Heat shock factor protein 1 (Mus musculus, UniProt P38532); experiment: enhancement of HSF1-driven luciferase signal – cell-based, NIH3T3, luminescence, dose retest, confirmation (AID 435004); format: functional;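 note: stress induced by proteasome inhibitor MG132 added 30 min after compound; luciferase reporter driven by HSF1 response element in NIH3T3 cells; actives raise luminescence as potentiators of the MG132 stress response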
# T3 sequence (P38532 whole entry): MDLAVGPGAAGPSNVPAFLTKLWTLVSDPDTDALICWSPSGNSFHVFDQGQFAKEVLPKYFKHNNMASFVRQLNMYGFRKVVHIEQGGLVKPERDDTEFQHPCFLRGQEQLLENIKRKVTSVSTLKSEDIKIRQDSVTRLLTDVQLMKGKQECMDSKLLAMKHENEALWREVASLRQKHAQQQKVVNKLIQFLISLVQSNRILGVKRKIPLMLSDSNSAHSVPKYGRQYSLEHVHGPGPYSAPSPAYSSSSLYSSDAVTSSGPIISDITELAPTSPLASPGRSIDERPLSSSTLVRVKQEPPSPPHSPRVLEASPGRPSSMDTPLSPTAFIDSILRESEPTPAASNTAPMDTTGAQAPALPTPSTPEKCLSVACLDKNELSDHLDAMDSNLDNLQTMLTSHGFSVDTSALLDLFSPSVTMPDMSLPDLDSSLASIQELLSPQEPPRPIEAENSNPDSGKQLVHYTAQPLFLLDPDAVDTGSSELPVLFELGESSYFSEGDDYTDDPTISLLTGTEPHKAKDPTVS
# [11] = target: SWI/SNF-related matrix-associated actin-dependent regulator of chromatin subfamily A member 2 (Homo sapiens, UniProt P51531); experiment: Luminescence-based cell-based high throughput dose response assay to identify activators of the function of SWI/SNF related, matrix associated, actin dependent regulator of chromatin, subfamily a, member 2 (SMARCA2, BRM).; format: functional
# [12] = Counterscreen for activators of the function of SWI/SNF related, matrix associated, actin dependent regulator of chromatin, subfamily a, member 2 (SMARCA2, BRM): Luminescence-based cell-based high throughput dose response assay to identify non-selective compounds using the VP16 reporter assay.; format: functional
# [13] = mouse fibroblast viability loss – cell-based, cherry-pick samples, set 2, cytotoxicity control for T. cruzi growth inhibitor project, dose response (AID 651817); format: functional; conditions: NIH3T3
# [14] = target: T4, Sentrin-specific protease 8 (Homo sapiens, UniProt Q96LD8); format: functional
# T4 sequence (Q96LD8 whole entry): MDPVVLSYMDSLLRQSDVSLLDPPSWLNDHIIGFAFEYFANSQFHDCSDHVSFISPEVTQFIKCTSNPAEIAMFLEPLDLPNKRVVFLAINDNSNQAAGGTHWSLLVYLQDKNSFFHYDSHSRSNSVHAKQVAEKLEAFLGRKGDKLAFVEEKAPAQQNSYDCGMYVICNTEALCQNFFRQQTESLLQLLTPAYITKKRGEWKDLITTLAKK
# [15] = target: T4, Sentrin-specific protease 8; format: functional; remark: listed apart in the source
# [16] = target: T5, Probable nicotinate-nucleotide adenylyltransferase (Staphylococcus aureus (strain N315), UniProt P65502); format: functional, Staphylococcus aureus subsp. aureus N315;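 for IC50 Mean: confirmatory dose-response retesting of NadD inhibitor hits first found in an ultra-high-throughput screen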
# [17] = target: T5, Probable nicotinate-nucleotide adenylyltransferase; format: functional, Staphylococcus aureus subsp. aureus N315; conditions: read-out: IC50_Mean
# [18] = target: T6, Apoptotic protease-activating factor 1 (Homo sapiens, UniProt O14727); format: functional
# T6 sequence (O14727 whole entry): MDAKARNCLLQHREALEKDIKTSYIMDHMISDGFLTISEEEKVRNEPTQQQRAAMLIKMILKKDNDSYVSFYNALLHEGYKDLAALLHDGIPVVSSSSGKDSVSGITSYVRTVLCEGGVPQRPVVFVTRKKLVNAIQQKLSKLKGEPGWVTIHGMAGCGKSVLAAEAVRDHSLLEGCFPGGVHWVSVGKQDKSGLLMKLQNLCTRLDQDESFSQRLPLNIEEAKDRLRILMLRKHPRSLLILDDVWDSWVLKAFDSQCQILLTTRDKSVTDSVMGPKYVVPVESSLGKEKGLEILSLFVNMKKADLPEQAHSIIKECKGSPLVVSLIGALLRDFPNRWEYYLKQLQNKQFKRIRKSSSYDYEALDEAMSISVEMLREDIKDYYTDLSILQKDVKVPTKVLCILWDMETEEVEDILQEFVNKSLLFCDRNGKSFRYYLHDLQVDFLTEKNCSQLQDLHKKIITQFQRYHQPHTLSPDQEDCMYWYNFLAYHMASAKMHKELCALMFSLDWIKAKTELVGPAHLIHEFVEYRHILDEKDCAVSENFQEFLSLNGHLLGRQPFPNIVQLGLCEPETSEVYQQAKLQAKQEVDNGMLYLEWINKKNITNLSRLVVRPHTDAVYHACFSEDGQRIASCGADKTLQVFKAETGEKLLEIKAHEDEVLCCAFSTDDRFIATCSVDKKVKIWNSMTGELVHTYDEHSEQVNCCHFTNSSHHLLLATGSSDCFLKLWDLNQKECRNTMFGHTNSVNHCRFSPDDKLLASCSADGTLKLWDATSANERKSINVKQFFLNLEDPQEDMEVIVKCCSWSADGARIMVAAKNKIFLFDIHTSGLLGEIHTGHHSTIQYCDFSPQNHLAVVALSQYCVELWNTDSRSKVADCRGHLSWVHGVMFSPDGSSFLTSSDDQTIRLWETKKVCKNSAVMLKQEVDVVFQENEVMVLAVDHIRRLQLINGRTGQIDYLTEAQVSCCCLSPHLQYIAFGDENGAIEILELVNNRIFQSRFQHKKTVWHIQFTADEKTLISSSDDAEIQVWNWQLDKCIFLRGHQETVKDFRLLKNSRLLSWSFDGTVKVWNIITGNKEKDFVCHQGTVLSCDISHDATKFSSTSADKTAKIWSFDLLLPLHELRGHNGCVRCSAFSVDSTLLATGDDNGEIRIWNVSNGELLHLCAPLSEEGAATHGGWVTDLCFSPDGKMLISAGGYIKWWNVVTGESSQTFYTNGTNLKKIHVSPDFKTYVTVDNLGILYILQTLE
# Fatty acid synthase [19] = target: T7, Fatty acid synthase (Homo sapiens, UniProt P49327); experiment: inhibition of human FAS-TE enzyme activity – biochemical, endpoint fluorescence intensity, uHTS hits, dose response (AID 624327); format: functional;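 note: fluorescence from hydrolysis of an O-methyl fluorescein acyl ester substrate by the enzyme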
# Fatty acid synthase [20] = target: T7, Fatty acid synthase; experiment: inhibition of human FAS-TE enzyme activity – biochemical, kinetic fluorescence intensity, dose response (AID 624326); format: functional;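 note: rate of fluorescence rise from hydrolysis of a fluorogenic O-methyl fluorescein ester substrate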
# T2 sequence (Q79MP6 whole entry): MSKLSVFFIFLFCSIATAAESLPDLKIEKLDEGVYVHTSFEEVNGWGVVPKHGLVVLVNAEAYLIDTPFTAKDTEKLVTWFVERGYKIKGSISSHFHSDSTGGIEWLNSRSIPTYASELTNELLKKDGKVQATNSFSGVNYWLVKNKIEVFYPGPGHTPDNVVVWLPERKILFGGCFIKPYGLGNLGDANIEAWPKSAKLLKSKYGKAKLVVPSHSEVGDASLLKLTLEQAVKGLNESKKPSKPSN
# T7 sequence (P49327 whole entry): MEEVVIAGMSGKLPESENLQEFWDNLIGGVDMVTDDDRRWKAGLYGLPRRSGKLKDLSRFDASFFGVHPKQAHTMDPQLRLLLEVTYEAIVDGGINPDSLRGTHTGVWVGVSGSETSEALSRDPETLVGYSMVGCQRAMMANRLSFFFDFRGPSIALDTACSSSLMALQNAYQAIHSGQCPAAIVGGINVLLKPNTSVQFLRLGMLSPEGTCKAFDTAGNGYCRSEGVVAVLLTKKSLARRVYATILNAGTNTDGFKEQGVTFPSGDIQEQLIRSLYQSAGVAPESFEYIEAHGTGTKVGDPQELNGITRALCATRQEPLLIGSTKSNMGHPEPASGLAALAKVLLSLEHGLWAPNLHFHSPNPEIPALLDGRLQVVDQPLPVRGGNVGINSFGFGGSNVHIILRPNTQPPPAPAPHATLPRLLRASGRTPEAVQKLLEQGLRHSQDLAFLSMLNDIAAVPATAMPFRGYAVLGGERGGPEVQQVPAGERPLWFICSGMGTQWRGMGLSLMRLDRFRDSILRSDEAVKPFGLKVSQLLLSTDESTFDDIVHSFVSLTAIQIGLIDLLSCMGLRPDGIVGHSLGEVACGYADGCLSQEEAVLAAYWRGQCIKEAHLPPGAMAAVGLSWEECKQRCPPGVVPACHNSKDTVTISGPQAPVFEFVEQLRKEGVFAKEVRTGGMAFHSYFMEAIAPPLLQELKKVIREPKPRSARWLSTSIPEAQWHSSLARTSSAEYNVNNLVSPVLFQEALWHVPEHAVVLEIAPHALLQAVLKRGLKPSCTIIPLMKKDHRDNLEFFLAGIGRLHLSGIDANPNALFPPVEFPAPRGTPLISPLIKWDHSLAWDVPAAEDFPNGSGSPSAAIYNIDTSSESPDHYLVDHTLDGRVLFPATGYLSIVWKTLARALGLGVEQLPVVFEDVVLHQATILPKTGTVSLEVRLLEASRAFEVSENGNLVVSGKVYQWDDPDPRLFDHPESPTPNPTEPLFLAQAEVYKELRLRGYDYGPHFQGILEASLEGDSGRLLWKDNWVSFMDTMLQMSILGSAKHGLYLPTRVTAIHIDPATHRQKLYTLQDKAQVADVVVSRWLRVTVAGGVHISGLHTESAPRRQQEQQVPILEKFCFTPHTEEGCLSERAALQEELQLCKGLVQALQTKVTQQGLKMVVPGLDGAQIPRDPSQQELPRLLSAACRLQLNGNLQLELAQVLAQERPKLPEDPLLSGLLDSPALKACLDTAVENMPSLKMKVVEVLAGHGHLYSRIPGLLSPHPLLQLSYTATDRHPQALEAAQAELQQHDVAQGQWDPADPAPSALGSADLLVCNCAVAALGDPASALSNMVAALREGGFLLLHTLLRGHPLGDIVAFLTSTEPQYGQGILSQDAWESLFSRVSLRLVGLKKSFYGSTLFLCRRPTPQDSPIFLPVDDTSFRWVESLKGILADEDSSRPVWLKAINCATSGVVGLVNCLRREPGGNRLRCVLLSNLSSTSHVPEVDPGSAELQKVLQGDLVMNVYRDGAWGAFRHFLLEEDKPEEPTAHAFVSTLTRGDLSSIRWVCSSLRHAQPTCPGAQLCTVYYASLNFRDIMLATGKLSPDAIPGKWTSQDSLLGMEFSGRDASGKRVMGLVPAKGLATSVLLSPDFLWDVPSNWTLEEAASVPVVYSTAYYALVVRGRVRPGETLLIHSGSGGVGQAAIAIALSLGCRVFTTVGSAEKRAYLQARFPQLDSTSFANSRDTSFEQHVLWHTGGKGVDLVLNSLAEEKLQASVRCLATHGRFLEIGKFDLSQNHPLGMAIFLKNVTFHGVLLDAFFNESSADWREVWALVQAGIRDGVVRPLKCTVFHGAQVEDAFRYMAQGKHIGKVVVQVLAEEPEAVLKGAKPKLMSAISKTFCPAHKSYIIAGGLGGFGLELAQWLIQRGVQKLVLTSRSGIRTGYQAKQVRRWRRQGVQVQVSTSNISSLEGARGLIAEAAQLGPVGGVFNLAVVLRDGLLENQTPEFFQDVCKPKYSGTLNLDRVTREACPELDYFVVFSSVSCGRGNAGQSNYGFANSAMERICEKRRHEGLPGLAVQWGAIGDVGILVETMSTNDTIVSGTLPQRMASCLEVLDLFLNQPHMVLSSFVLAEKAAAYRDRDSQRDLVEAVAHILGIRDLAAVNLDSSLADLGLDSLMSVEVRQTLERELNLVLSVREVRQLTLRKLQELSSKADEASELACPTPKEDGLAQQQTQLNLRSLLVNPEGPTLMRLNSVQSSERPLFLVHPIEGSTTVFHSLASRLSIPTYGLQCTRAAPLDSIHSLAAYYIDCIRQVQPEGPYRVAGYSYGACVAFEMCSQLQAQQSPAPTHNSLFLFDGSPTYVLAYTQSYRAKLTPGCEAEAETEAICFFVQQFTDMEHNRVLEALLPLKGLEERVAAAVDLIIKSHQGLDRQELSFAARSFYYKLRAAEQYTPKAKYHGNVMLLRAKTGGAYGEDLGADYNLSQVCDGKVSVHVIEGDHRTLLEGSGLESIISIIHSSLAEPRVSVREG
# Sequence of Albumin (P02769 whole entry): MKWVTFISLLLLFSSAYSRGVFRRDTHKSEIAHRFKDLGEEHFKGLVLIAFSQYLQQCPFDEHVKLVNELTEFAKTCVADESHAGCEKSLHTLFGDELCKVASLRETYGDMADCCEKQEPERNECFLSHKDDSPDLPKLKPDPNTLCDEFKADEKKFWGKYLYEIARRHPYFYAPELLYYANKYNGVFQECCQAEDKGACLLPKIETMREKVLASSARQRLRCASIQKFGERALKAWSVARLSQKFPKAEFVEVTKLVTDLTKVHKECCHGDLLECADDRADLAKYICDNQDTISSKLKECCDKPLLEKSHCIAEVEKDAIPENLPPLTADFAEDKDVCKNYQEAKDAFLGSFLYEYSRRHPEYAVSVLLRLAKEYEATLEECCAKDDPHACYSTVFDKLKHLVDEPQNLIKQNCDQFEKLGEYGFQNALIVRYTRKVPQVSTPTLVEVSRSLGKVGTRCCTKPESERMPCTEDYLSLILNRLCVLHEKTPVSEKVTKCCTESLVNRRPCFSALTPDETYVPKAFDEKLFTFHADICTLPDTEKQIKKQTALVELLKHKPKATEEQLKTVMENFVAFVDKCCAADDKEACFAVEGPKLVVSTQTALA
# T5 sequence (P65502 whole entry): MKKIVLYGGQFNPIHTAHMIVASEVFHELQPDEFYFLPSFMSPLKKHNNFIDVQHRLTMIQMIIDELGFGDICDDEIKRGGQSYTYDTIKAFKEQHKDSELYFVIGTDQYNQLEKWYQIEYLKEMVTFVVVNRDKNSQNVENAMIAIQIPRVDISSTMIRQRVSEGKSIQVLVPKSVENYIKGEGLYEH
# Sequence of Beta-lactamase (Salmonella choleraesuis (strain SC-B67), UniProt Q5J463) (Q5J463 whole entry): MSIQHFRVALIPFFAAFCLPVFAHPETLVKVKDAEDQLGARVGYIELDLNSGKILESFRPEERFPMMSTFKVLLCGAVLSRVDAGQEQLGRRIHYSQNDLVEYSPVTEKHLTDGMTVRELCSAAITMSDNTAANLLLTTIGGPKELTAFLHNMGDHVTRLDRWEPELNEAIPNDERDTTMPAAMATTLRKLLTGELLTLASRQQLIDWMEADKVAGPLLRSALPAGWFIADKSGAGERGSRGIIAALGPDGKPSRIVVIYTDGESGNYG
# Sequence of Cytochrome P450 3A4 (P08684 whole entry, the tested form may be a part): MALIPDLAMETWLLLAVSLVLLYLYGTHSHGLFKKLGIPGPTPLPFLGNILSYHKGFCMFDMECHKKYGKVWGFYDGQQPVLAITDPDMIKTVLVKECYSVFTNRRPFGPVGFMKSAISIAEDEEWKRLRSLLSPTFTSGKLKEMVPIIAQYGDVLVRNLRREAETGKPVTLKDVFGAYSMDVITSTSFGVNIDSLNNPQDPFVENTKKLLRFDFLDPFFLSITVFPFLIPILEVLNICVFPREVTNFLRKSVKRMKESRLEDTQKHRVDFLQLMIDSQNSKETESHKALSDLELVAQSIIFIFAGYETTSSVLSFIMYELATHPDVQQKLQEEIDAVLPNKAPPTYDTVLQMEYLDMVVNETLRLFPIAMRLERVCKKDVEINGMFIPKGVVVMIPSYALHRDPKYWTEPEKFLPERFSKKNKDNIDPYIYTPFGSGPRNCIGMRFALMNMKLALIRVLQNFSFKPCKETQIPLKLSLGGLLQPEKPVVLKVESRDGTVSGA
# Sequence of Large T antigen (P03070 whole entry): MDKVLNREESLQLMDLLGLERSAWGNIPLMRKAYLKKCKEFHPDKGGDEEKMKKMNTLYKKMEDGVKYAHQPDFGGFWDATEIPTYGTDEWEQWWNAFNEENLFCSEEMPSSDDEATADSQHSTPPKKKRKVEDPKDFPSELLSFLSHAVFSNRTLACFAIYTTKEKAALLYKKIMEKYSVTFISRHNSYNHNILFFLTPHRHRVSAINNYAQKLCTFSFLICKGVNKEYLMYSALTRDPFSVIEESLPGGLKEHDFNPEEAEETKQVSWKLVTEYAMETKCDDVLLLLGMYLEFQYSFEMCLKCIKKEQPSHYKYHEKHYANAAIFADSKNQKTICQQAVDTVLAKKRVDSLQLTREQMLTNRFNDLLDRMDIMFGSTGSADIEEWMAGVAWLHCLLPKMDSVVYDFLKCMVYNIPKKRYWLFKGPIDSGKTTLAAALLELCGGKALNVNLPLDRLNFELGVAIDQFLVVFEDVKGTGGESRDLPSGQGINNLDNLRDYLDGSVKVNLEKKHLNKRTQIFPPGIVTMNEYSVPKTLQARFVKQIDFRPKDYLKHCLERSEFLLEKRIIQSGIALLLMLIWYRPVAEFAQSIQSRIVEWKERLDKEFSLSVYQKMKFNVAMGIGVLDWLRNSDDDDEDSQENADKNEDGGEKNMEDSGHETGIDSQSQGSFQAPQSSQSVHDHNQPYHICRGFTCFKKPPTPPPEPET
smiles,measurement,setting,value
O=S1(=O)CCN(c2ccccc2CC(c2c[nH]c3ccccc23)c2c[nH]c3ccccc23)CC1,AC50,[1],< 0.26 µM (active)
same,AC50,Cytochrome P450 3A4,2.51 µM (inconclusive)
same,AC50,[2],24.6 µM (active)
same,AC50,[3],0.555 µM (active)
same,AC50,[4],1.06 µM (active)
same,AC50,[5],< 0.26 µM (active)
COc1cc(Br)cc2cc(C(=O)N3CCN(C(=O)c4ccco4)CC3)c(=O)oc12,IC50,Albumin,> 94.1 µM (inactive)
Cc1c(CC(=O)N2CCN(C(=O)C3COc4ccccc4O3)CC2)c(=O)oc2c(O)c(O)ccc12 (stereo not drawn),AC50,[6],3.53 µM (active)
same,IC50,Albumin,> 94.1 µM (inactive)
same,IC50,Large T antigen,2.43 µM (active)
O=C(CSc1nnc(NC(=O)c2ccccc2F)s1)NCc1ccc(F)cc1,IC50,Beta-lactamase [7],> 59.6 µM (inactive)
same,IC50,Beta-lactamase [8],> 59.6 µM (inactive)
same,IC50,Beta-lactamase [9],> 59.6 µM (inactive)
CCCc1cc(=O)oc2c3c(cc(OCC(=O)N[C@@H](C)C(=O)O)c12)OC(C)(C)CC3,EC50,[10],> 260 µM (inactive)
same,IC50,Beta-lactamase [7],> 59.6 µM (inactive)
same,IC50,Beta-lactamase [8],> 59.6 µM (inactive)
same,IC50,Beta-lactamase [9],> 59.6 µM (inactive)
NC(CCc1ccccc1)c1csc(Nc2ccccn2)n1 (stereo not drawn),AC50,[1],6.61 µM (active)
same,AC50,[2],38.1 µM (active)
same,AC50,[3],3.22 µM (active)
same,AC50,[4],22.6 µM (active)
same,AC50,[5],7.52 µM (active)
CCCCCCN[C@H]1CCC2C3CC=C4C[C@@H](O)CC[C@]4(C)C3CC[C@@]21C (stereo partly drawn),EC50,[11],> 91.2 µM (inactive)
same,EC50,[12],> 91.2 µM (inactive)
C[C@H](CO)N1C[C@H](C)[C@@H](CN(C)Cc2ccc(Cl)c(Cl)c2)Oc2ccc(NS(=O)(=O)c3ccc(F)cc3)cc2CC1=O,AC50,[13],10.6 µM (active)
Cc1ccc(S(=O)(=O)Nc2ccc3c(c2)CC(=O)N([C@@H](C)CO)C[C@@H](C)[C@@H](CN(C)S(=O)(=O)c2ccc(Cl)cc2)O3)cc1,AC50,[13],35 µM (active)
Cc1nn(-c2ccc(Cl)cc2)c(O)c1C(c1ccccc1O)c1c(C)[nH]n(-c2ccc(Cl)cc2)c1=O (stereo not drawn),IC50,[14],32.9 µM (active)
same,IC50,[15],8.38 µM (active)
same,IC50,[16],6.68 µM (active)
same,IC50,[17],21.1 µM (active)
same,IC50,[18],13.3 µM (active)
COc1ccc(/C=N\NC(=O)CNC(=O)C(c2ccccc2)c2ccccc2)cc1[N+](=O)[O-],IC50,Fatty acid synthase [19],16.6 µM (active)
same,IC50,Fatty acid synthase [20],12.3 µM (active)
